Measured values published in patent US12338270B2, “Pharmaceutical composition comprising polypeptide” (D&D Pharmatech Inc., priority 2018, dated 2025).
Non-standard residues stand in square brackets, D forms with d. No end group written: not given here. tri‑branched mPEG‑MAL 50 kDa = tri-branched maleimide-activated monomethoxy PEG, 50 kDa; Aib = CC(C)(N)C(=O)O

How the values were obtained:
Assay type in all cases: in vivo
[1] = system: db/db mice; assay: blood glucose and body weight in db/db mice (Experimental Example 4)
Protocol: First of all, the conjugate of Example 2 was administered to 7-week-old db/db mice by subcutaneous injection at a dose of 20 nmol/kg once every other day for 12 days. For 12 days when the drug was administered, the changes in blood glucose and body weights were measured once every other day after the drug administration.

[2] = system: db/db mice; assay: glycated hemoglobin (HbA1c) in db/db mice after administration; conditions: db/db mice after administration of 20 nmol/kg s.c. once every other day; FIG. 3
Protocol: (§1) Next, to perform an intraperitoneal glucose tolerance test (ipGTT), 2 g/kg of glucose was administered intraperitoneally after the 12-day administration of the drug, and a change in blood glucose with the elapse of time (0, 15, 30, 60, 90, and 120 minutes) was measured. To determine a degree of long-term change in average blood glucose level, a level of glycated hemoglobin (HbA1c) was also measured after the drug administration.

[3] = system: db/db mice; assay: ipGTT in db/db mice after 12-day administration; parameters: blood glucose in ipGTT: unit not given here; conditions: for blood glucose in ipGTT: db/db mice after 12 days of 20 nmol/kg s.c. once every other day
Protocol: as §1

[4] = 20 nmol/kg s.c. once every other day for 12 days
[5] = day 0, 20 nmol/kg s.c. once every other day
[6] = day 2, 20 nmol/kg s.c. once every other day
[7] = day 4, 20 nmol/kg s.c. once every other day
[8] = day 6, 20 nmol/kg s.c. once every other day
[9] = day 8, 20 nmol/kg s.c. once every other day
[10] = day 10, 20 nmol/kg s.c. once every other day
[11] = day 12, 20 nmol/kg s.c. once every other day

## Example 2: Conjugate of polypeptide H(Aib)QGTFTSDYSKYLDEQAAKEFVQWLMNTC (SEQ ID NO. 2) and tri-branched mPEG-MAL (MW: 50 kDa) (H[Aib]QGTFTSDYSKYLDEQAAKEFVQWLMNTC(tri‑branched mPEG‑MAL 50 kDa); lactam (positions not given here); not fully specified (bridges); printed as H(Aib)QGTFTSDYSKYLDEQAAKEFVQWLMNTC)
[1]; [4]
  body weight vs non-treated group: body weight loss was observed
  level of blood glucose vs non-treated group: a level of blood glucose was lowered
[1]; [5]
  Blood glucose: 100%
  Body weight: 100%
[1]; [6]
  Blood glucose: 88%
  Body weight: 96%
[1]; [7]
  Blood glucose: 34%
  Body weight: 91%
[1]; [8]
  Blood glucose: 25%
  Body weight: 86%
[1]; [9]
  Blood glucose: 17%
  Body weight: 84%
[1]; [10]
  Blood glucose: 17%
  Body weight: 79%
[1]; [11]
  Blood glucose: 16%
  Body weight: 76%
[2]
  level of glycated hemoglobin (HbA1c): significantly lower a level of glycated hemoglobin
[3]; 0 min after 2 g/kg glucose i.p.
  blood glucose in ipGTT: 63
[3]; 15 min after 2 g/kg glucose i.p.
  blood glucose in ipGTT: 190
[3]; 30 min after 2 g/kg glucose i.p.
  blood glucose in ipGTT: 246
[3]; 60 min after 2 g/kg glucose i.p.
  blood glucose in ipGTT: 341
[3]; 90 min after 2 g/kg glucose i.p.
  blood glucose in ipGTT: 356
[3]; 120 min after 2 g/kg glucose i.p.
  blood glucose in ipGTT: 396
[3]; db/db mice after 12-day administration
  glucose tolerance in ipGTT: higher glucose tolerance than the non-treated group
